The text below walks through data of patent US20200087709A1, “DIRECT-TO-CONSUMER GENOMIC DIAGNOSTIC DEVICE” (MicroInvestigate, LLC, priority 2018, published 2020).

“Also recorded” adds a separate entry of the source.

Common to all, as to experiment: Antibiotic testing by broth microdilution
Format in all cases: cell-based

Assay [1] concerns Streptococcus pyogenes MGAS10394. As to conditions: for resistance or susceptibility by broth dilution: S. pyogenes MGAS10394 (mef(A) positive); for MIC: Streptococcus pyogenes, MGAS10394, 20 h, S. pyogenes MGAS10394, known mef(A)+, BHI, 37° C., 20 hour incubation. How it is done: (§1) All bacteria were tested for their antimicrobial susceptibility by broth microdilution. Ampicillin (Cat #97061-442) was obtained from VWR (Amresco) and Erythromycin (Cat # TCE0751-5G) was obtained from VWR (TCI). Bacteria were maintained on blood agar plates at 37° C., and single colonies selected for inoculation into liquid overnight cultures in sterile Brain-Heart Infusion (BHI, VWR Cat #90003-038). For each culture, 5 mL of BHI media was inoculated in a sealed 15 ml falcon tube for overnight incubation at 37° C. (no shaking). Gentle inversion was used to mix the cultures prior to setting up the assay.
(§2) For the experiment, 5 μl of overnight culture was mixed with 5 mL of BMI media (1000× dilution) in a sterile tray and gently mixed. This dilute culture was added at […] per well of a 96-well plate pre-loaded with 20 μl of antibiotic solutions ranging, for erythromycin, from 0.5 to 32 μg/ml (10×) to produce the desired final concentrations of 0.05-3.2 μg/ml. For ampicillin, the stocks were 1.25 μg/ml-80 μg/ml resulting in final concentrations of 0.125 μg/ml-8 μg/ml. The 96-well plate was then transferred to a FilterMax F5 microplate reader for a 20 hour incubation at a temperature of 37° C., with readings taken every 30 minutes. A10-second orbital shaking was performed prior to each reading.
On the technique in general: Broth dilution looks for growth in wells or tubes with falling amounts of substance.

Assay [2] deals with Streptococcus salivarius patient isolate. The following applies: for resistance or susceptibility by broth dilution: S. salivarius (mef(A) positive); for MIC: Streptococcus salivarius, 20 h, S. salivarius patient isolate, discovered mef(A)+, BHI, 37° C., 20 hour incubation. How it is done: as §1, §2
Assay [3] relates to Streptococcus agalactiae SGBS025. The following applies: for resistance or susceptibility by broth dilution: S. agalactiae (ermB positive and mef(A) negative); for MIC: Streptococcus agalactiae, SGBS025, 20 h, S. agalactiae SGBS025, known ermB+, mef(A)−, BHI, 37° C., 20 hour incubation. The protocol: as §1, §2
The subject of assay [4] is Streptococcus pyogenes MGAS6180. The following applies: for resistance or susceptibility by broth dilution: S. pyogenes MGAS6180 (mef(A) negative); for MIC: Streptococcus pyogenes, S. pyogenes MGAS6180, known mef(A)−, BHI, 37° C., 20 hour incubation. The protocol: as §1, §2

For orientation: MIC means the lowest concentration that inhibits growth of the organism. Lower therefore signals greater potency. On to `CC1(C)S[C@@H]2[C@H](NC(=O)[C@H](N)c3ccccc3)C(=O)N2[C@H]1C(=O)O` [ampicillin, Ampicillin], for which the “resistance or susceptibility by broth dilution” value in assay [1], in assay [2], in assay [3] and in assay [4] was “susceptible” in each case. Moreover, the MIC in assay [1], in assay [2], in assay [3] and in assay [4] was < 0.125 µg/mL in each case.

In the case of `CC[C@H]1OC(=O)[C@H](C)[C@@H](O[C@H]2C[C@@](C)(OC)[C@@H](O)[C@H](C)O2)[C@H](C)[C@@H](O[C@@H]2O[C@H](C)C[C@H](N(C)C)[C@H]2O)[C@](C)(O)C[C@@H](C)C(=O)[C@H](C)[C@@H](O)[C@]1(C)O` [erythromycin, Erythromycin], the “resistance or susceptibility by broth dilution” value in assay [1] is “resistant”; in assay [2], “resistant”; in assay [3], “robust resistance; also recorded: resistant”; in assay [4], “susceptible”. For the same molecule, the minimum inhibitory concentration (MIC) in assay [1] was ≥ 3.2 µg/mL; in assay [2] it was ≥ 3.2 µg/mL; in assay [3], ≥ 3.2 µg/mL; in assay [4], < 0.05 µg/mL.
